{"source": "patent US5254582A", "about": "“Antitumor compositions and methods” (Eli Lilly and Company, priority 1992, dated 1993)", "key": {"[1]": {"settings": "cited from earlier work"}, "[2]": {"settings": "phase I clinical studies; cited from earlier work"}, "[3]": {"settings": "in vivo; cited from earlier work"}, "[4]": {"system": "HXGC3 human colon adenocarcinoma xenograft", "assay": "percent inhibition of tumor growth and mortality in mice bearing HXGC3 human colon adenocarcinoma xenografts, oral", "assay_type": "in vivo", "settings": "daily for 10 days", "description": "(§1) Two of the tumor models used for showing the antineoplastic activity of the sulfonylurea of this invention were the human colon xenografts, HXGC3 and VRC5. J. A. Houghton and D. M. Taylor, British Journal of Cancer, 37:213-223 (1978). These tumors were obtained from St. Jude's Children's Research Hospital and have been widely used as human tumor models.\n(§2) First passage tumors were stored in liquid nitrogen, using standard techniques. The transplanted tumor was reestablished from the Tumor Bank every six months or as needed. The tumor was maintained by serial passage twice weekly in nude mice.\n(§3) In the procedures utilized here, the tumor was removed from passage animals and minced into 1- to 3-mm cubic fragments using sterile techniques. Tumor pieces were checked for sterility using both Antibiotic medium 1 and Brain Heart Infusion (Difco, Detroit, Mi.). The tumor pieces were implanted into the recipient CDl Nu/Nu mice subcutaneously in an axillary site by trochar.\n(§4) Drug therapy on the appropriate schedule was initiated seven days after tumor implantation. The compound being tested was mixed with 2.5% Emulphor EL620 from GAF Corporation (1:40 dilution in 0.9% saline). The total dosage volume for each administration was 0.5 mL. All animals were weighed at the beginning and end of administration of the subject compounds. Food and water were provided ad libitum.\n(§5) Each control group and each dosage level of the treated groups consisted of 10 mice selected at random from the pool of implanted animals. The formulations were administered orally by gavage with the use of an 18-gauge needle. Compounds were dosed daily for 10 days.\n(§6) The tumor was measured five days after treatment ended with two dimensional measurements (width and length) of the tumor taken using digital electronic calipers interfaced to a microcomputer. J. F. Worzalla, et al., Investigational New Drugs, 8:241-251 (1990). Tumor weights were calculated from these measurements using the following formula:\n(§7) Tumor weight (mg)=[tumor length (mm)×[tumor width (mm)]^2 ]\n(§8) At least one control group of an equal number of mice was treated with the same volume of 2.5% Emulphor only. The percent inhibition is determined by subtracting the ratio of the mean tumor size of the test group relative to the control group from one and multiplying the result by 100.\n(§9) The results of several experiments in mice bearing the HXGC3 and VRC5 human colon adenocarcinomas when the instant compounds were administered orally are provided in Table I. In the Table, column 1 describes the particular human tumor xenograft being studied; column 2 gives the dosage level of the compound of Formula I in milligrams per kilogram of body weight; column 3 describes the percent inhibition of tumor growth; and column 4 tallies the number of mice which died during the course of the experiment relative to the total number of animals in the group."}, "[5]": {"system": "VRC5 human colon adenocarcinoma xenograft", "assay": "percent inhibition of tumor growth and mortality in mice bearing VRC5 human colon adenocarcinoma xenografts, oral", "assay_type": "in vivo", "settings": "daily for 10 days", "description": "as §1, §2, §3, §4, §5, §6, §7, §8, §9"}, "[6]": {"system": "transplanted human tumors", "assay": "activity against transplanted human tumors in mice bearing different xenograft tumors", "assay_type": "in vivo", "description": "as §1"}, "[7]": {"assay": "toxicological study in male Fischer 344 rats, morphological, hematological and pathological studies", "assay_type": "in vivo, rat (male Fischer 344)", "settings": "rat, 65 to 1000 mg/kg, oral gavage, daily for 14 days", "experimental": "For these experiments thirty male Fischer 344 rats were administered varying dosages of a formulation containing the compound of Formula I. These formulations contained between 65 and 1000 mg of the active ingredient per kilogram of body weight of the rat, in combination with a suitable excipient, usually containing 10% acacia. The compounds were administered orally by gavage. The compounds were dosed daily for 14 days. All animals were weighed at the beginning and end of administration of the subject compounds. Food and water were provided ad libitum.\nUpon completion of the testing regimen, morphological and hematological studies were performed."}}, "data": [{"compound": "O=C(Nc1ccc(Cl)cc1)NS(=O)(=O)c1ccc2c(c1)CCC2", "note": "[sulofenur, N-(indan-5-sulfonyl)-N'-(4-chlorophenyl)urea]", "values": [{"measurement": "main urinary metabolites", "setting": "[1]; animal trials, urine", "result": "mono-hydroxy- and mono-ketoindanyl metabolites"}, {"measurement": "adsorption and metabolism", "setting": "[1]; mice, rats, dogs, and monkeys", "result": "good adsorption and extensive metabolism"}, {"measurement": "major metabolites in patients", "setting": "[2]", "result": "1-hydroxy- and 1-ketoindansulfonylureas"}, {"measurement": "dose-limiting toxicity", "setting": "[3]", "result": "hemolytic anemia"}]}, {"compound": "O=C(Nc1ccc(Cl)c(Cl)c1)NS(=O)(=O)c1ccc2c(c1)CCO2", "note": "[compound of Formula I, N-[[(3,4-dichlorophenyl)amino]carbonyl]-2,3-dihydrobenzofuran-5-sulfonamide]", "values": [{"measurement": "Percent Inhibition of tumor growth", "setting": "[4]; 150 mg/kg", "result": 81, "unit": "%"}, {"measurement": "Toxic/Total (mice which died relative to total number in group)", "setting": "[4]; 150 mg/kg", "result": "0/10"}, {"measurement": "Percent Inhibition of tumor growth", "setting": "[4]; 300 mg/kg", "result": 98, "unit": "%"}, {"measurement": "Toxic/Total (mice which died relative to total number in group)", "setting": "[4]; 300 mg/kg", "result": "0/10"}, {"measurement": "Percent Inhibition of tumor growth", "setting": "[4]; 600 mg/kg", "result": 98, "unit": "%"}, {"measurement": "Toxic/Total (mice which died relative to total number in group)", "setting": "[4]; 600 mg/kg", "result": "0/10"}, {"measurement": "Percent Inhibition of tumor growth", "setting": "[4]; 1200 mg/kg", "result": 99, "unit": "%"}, {"measurement": "Toxic/Total (mice which died relative to total number in group)", "setting": "[4]; 1200 mg/kg", "result": "0/10"}, {"measurement": "Percent Inhibition of tumor growth", "setting": "[5]; 150 mg/kg", "result": 97, "unit": "%"}, {"measurement": "Toxic/Total (mice which died relative to total number in group)", "setting": "[5]; 150 mg/kg", "result": "0/10"}, {"measurement": "Percent Inhibition of tumor growth", "setting": "[5]; 300 mg/kg", "result": 98, "unit": "%"}, {"measurement": "Toxic/Total (mice which died relative to total number in group)", "setting": "[5]; 300 mg/kg", "result": "0/10"}, {"measurement": "Percent Inhibition of tumor growth", "setting": "[5]; 600 mg/kg", "result": 100, "unit": "%"}, {"measurement": "Toxic/Total (mice which died relative to total number in group)", "setting": "[5]; 600 mg/kg", "result": "0/10"}, {"measurement": "Percent Inhibition of tumor growth", "setting": "[5]; 1200 mg/kg", "result": 100, "unit": "%"}, {"measurement": "Toxic/Total (mice which died relative to total number in group)", "setting": "[5]; 1200 mg/kg", "result": "0/10"}, {"measurement": "therapeutic index", "setting": "[6]; in vivo", "result": "high therapeutic index"}, {"measurement": "activity against transplanted human tumors in vivo", "setting": "[6]; mice bearing different xenograft tumors", "result": "active against transplanted human tumors in vivo"}, {"measurement": "hemolytic anemia", "setting": "[7]", "result": "absence of hemolytic anemia"}, {"measurement": "pathological tissue effects", "setting": "[7]", "result": "effectiveness against tissues with a high mitotic index, including lymph nodes, thymus, gut, testis, and bone marrow"}, {"measurement": "unexpected tissue changes", "setting": "[7]", "result": "Unexpected tissue changes were not observed"}]}]}
